Experiments:
[1] = In vitro cytotoxic assay, MCF-7; type: cell-based; details: human, MCF-7 cells (breast cancer cell line); also: 0.1-25 µM tested
Experimental: (§1) Skin normal fibroblastic cells were purchased from Lonza (Basel, Switzerland). […] All culture media were supplemented by 10% of FBS, 1% of penicillin–streptomycin and 2 mM glutamine.
(§2) Chemicals were solubilized in DMSO at a concentration of 10 mM (stock solution) and diluted in culture medium to the desired final concentrations. […] Cells were plated in 96-well plates (4000 cells/well). Twenty-four hours after seeding, the cells were exposed to chemicals. […] Image acquisition and analysis were performed using a Cellomics ArrayScan VTI/HCS Reader (ThermoScientific, Les Ulis, France). The survival percentages were calculated as the percentage of cell number after compound treatment over cell number after DMSO treatment. The relative IC50 values were calculated using the curve fitting XLfit 5.5.0.5 (idbs) integrated in Microsoft Excel as an add-on.
(§3) 4.3.1. Cell culture. Skin normal fibroblastic cells are purchased from Lonza (Basel, Switzerland). Huh7- […]
(§4) from ATCC (American Type Culture Collection). […]
(§5) supplemented by 10% of FBS, 1% of penicillin-streptomycin and 2 mM glutamine.
(§6) 4.3.2. Cytotoxic assay. Chemicals were solubilized in DMSO at a concentration of 10 mM (stock solution) and diluted in culture medium to the desired final concentrations. The dose effect cytotoxic assays (IC50 determination) were performed by increasing the concentrations of each chemical (final well […]
(§7) Cells were plated in 96-well plates
(§8) (4000 cells/well). Twenty-four hours after seeding, cells were exposed to chemicals. After 48h of treatment, cells were washed in PBS and fixed in cooled 90% ethanol/5% acetic acid for 20 min and the […]
(§9) Image acquisition and analysis were performed using a Cellomics ArrayScan VTI/HCS Reader (ThermoScientific). The survival percentages were calculated as the percentage of cell number after compound treatment over cell number after DMSO treatment. The relative IC50 were calculated using the curve fitting XLfit 5.5.0.5 (idbs) integrated in Microsoft Excel as an add-on. The 4 Parameter Logistic Model or Sigmoidal Dose-Response Model describing the sigmoid-shaped response pattern was used (fit = (A+[(B-A)/(1+[(C/x)^D])]) where fit is the response and X is the tested concentration of the compound. The lower asymptote is A (also referred to as the bottom of the curve or lower plateau or the min) and the upper asymptote is B (also referred to as the top of the curve or upper plateau or the max). The slope of the linear part of the curve is described by the factor D. The parameter C is the concentration corresponding to the response midway between A and B. C is called “relative IC50” because it refers to the maximum response obtained by a […]
(§10) The results are represented as the mean ± standard error (SE) calculated from at least three independent experiments.

[2] = In vitro cytotoxic assay, MDA-MB-231; type: cell-based; details: human, MDA-MB-231 cells (breast cancer cell line); read-out: In vitro cytotoxic activity IC50, MBA-MB-231; also: 0.1-25 µM tested
Experimental: as §1, §2, §3, §4, §5, §6, §7, §8, §9, §10

[3] = In vitro cytotoxic assay, MDA-MB-468; type: cell-based; details: human, MDA-MB-468 cells (breast cancer cell line); read-out: In vitro cytotoxic activity IC50, MBA-MB4-68
Experimental: as §1, §2, §3, §4, §5, §6, §7, §8, §9, §10

melting point	SMILES	IC50 at 48 h [1]	IC50 at 48 h [2]	IC50 at 48 h [3]
213 to 214 °C	COC(=N)c1nc2cc3c(=O)n(Cc4ccccc4)cnc3cc2s1 [Compound 6a, Methyl 7-benzyl-8-oxo-7,8-dihydrothiazolo[4,5-g]quinazoline-2-carbimidate]	17 µM	20 µM	19 µM
244 to 245 °C	COC(=N)c1nc2cc3ncn(Cc4ccccc4)c(=O)c3cc2s1 [Compound 6b, Methyl 7-benzyl-8-oxo-7,8-dihydrothiazolo[5,4-g]quinazoline-2-carbimidate]	1 µM	3 µM	1 µM
213 to 214 °C	COC(=N)c1nc2c(ccc3c(=O)n(Cc4ccccc4)cnc32)s1 [Compound 6c, Methyl 7-benzyl-6-oxo-6,7-dihydrothiazolo[5,4-h]quinazoline-2-carbimidate]	7 µM	13 µM	13 µM
205 to 206 °C	COC(=N)c1nc2ccc3c(=O)n(Cc4ccccc4)cnc3c2s1 [Compound 6d, Methyl 7-benzyl-6-oxo-6,7-dihydrothiazolo[4,5-h]quinazoline-2-carbimidate]	8 µM	11 µM	5 µM
246 to 247 °C	COC(=N)c1nc2cc3c(Nc4ccc(OC)cc4F)ncnc3cc2s1 [Compound 15a, Methyl 8-[(2-fluoro-4-methoxyphenyl)amino]thiazolo[4,5-g]quinazoline-2-carbimidate]	> 25 µM	9 µM	
239 to 240 °C	COC(=N)c1nc2cc3ncnc(Nc4ccc(OC)cc4F)c3cc2s1 [Compound 15b, Methyl 8-[(2-fluoro-4-methoxyphenyl)amino]thiazolo[5,4-g]quinazoline-2-carbimidate]			
	COC(=N)c1nc2ccc3ncn(Cc4ccccc4)c(=O)c3c2s1 [Compound I, methyl 8-benzyl-9-oxo-8,9-dihydrothiazolo[5,4-f]quinazoline-2-carbimidate, reference compound]	17 µM	21 µM	21 µM
	COC(=N)c1nc2ccc3ncnc(Nc4ccc(OC)cc4F)c3c2s1 [Compound II, methyl 9-[(2-fluoro-4-methoxyphenyl)amino]thiazolo[5,4-f]quinazoline-2-carbimidate, reference compound]	5 µM	5 µM	9 µM
